Data taken from US20150366890A1, “COMPOSITIONS AND METHODS FOR TREATING FUNGAL INFECTIONS” (TRUSTEES OF BOSTON UNIVERSITY, priority 2013, published 2015).

Columns and labels:
[1] = test system: S. cerevisiae single-deletion yeast strains; test: High-throughput 96-well screen of AF sensitivity of single-gene knockouts (CFU at start and after 8 hours); type: cell-based
Experimental: To identify genes critical to AF action, the AF sensitivity of single-gene knockouts identified through the common transcriptional analysis were identified. In the first pass-through, 56 testable genes were identified. This set was later expanded to include targets identified through phenotypic analysis and metabolomic profiling, for a total of 84 target genes (Table 2). The initial 56 targets were tested using a rapid high-throughput 96-well assay with AMB and MCZ to identify single-gene knockouts with elevated resistance to AFs (Table 2). Knockouts that were more resistant to at least one of the AFs were tested individually using the 24-well colony forming (CF) assay. Target genes selected after the initial 56 strains were assayed individually using the 24-well CF assay.
The first 56 S. cerevisiae strains were acquired from the deletion library and stored in 96-well plates in replicates of three. To start the assay, the plates were defrosted and 10 μl of stored cells were inoculated into 100 μl of fresh synthetic dextrose complete (SDC) media for 16 hours. These overnight cultures were diluted into a fresh 96-well plate with 100 μl of SDC to achieve an OD600 of approximately 0.2. Colony forming units (CFU) in each well were measured at the start of the assay and after 8 hours of incubation. The AF susceptibility of each strain was compared to that of wildtype. Strains with significant susceptibility differences from wildtype were assayed in 0.5 ml of SDC media using the 24-well plate CF assay described above.

[2] = test system: C. albicans wildtype and DNA repair mutants; test: Fungicidal killing, CFU assay; type: cell-based; settings: C. albicans rad50/rad50 and rad52/rad52, 3 hours of drug exposure
Experimental: Overnight yeast cultures were diluted into the indicated media and grown to an OD600 of 0.2, at which point the AFs were added. Colony forming units (CFU) were measured by plating six serial dilutions onto YPD agar plates.
Overnight yeast cultures were diluted into the indicated media and grown to an OD600 of 0.2, at which point the AFs were added. Colony forming units (CFU) were measured by plating six serial dilutions onto YPD agar plates. Cells treated with MCZ were washed before serial dilution to stop growth inhibition associated with high concentrations of MCZ. CFU were counted after three days of incubation on agar plates. When indicated, thiourea (Fluka) was added 30 min prior to the addition of AFs. HPF (10 μM) (Invitrogen) and Mito Tracker (1 μM) (Invitrogen) dyes were added to PBS-washed cells at the indicated time points and incubated for 30 min prior to flow cytometry measurements, which were taken on the FACSCalibur (Becton-Dickinson). All experiments described in this section were conducted in 0.5 ml of SDC in 24-well plates incubated at 900 rpm and 37° C. for C. albicans and 30° C. and 300 rpm for S. cerevisiae. TUNEL assays were conducted as previously described (Ribeiro et al., 2006) and are described in detail in the TUNEL section of the Experimental Procedures.

For `C[C@@H]1[C@H](O)[C@@H](C)/C=C/C=C/C=C/C=C/C=C/C=C/C=C/[C@H](O[C@@H]2O[C@H](C)[C@@H](O)[C@H](N)[C@@H]2O)C[C@@H]2O[C@](O)(C[C@@H](O)C[C@@H](O)[C@H](O)CC[C@@H](O)C[C@@H](O)CC(=O)O[C@H]1C)C[C@H](O)[C@H]2C(=O)O` [AMB, amphotericin B], the “96 Well Screen, AF susceptibility vs wildtype” value (“96 Well Screen … vs wildtype” below) ([1]; S. cerevisiae PAB103, SDH2 deletion) was “Resistant (″Resistant″ or ″Sensitive″ indicate at least a 5-fold CFU difference from wildtype at the final time point)”, the “96 Well Screen … vs wildtype” value ([1]; S. cerevisiae PAB104, FRE8 deletion) was “Resistant (″Resistant″ or ″Sensitive″ indicate at least a 5-fold CFU difference from wildtype at the final time point)” and the “96 Well Screen … vs wildtype” value ([1]; S. cerevisiae PAB105, CHA4 deletion) was “Resistant (″Resistant″ or ″Sensitive″ indicate at least a 5-fold CFU difference from wildtype at the final time point)”. The “96 Well Screen … vs wildtype” value ([1]; S. cerevisiae PAB106, FMS1 deletion) was “Resistant (″Resistant″ or ″Sensitive″ indicate at least a 5-fold CFU difference from wildtype at the final time point)”, the “96 Well Screen … vs wildtype” value ([1]; S. cerevisiae PAB107, NDE1 deletion) was “Resistant (″Resistant″ or ″Sensitive″ indicate at least a 5-fold CFU difference from wildtype at the final time point)” and the “96 Well Screen … vs wildtype” value ([1]; S. cerevisiae PAB108, ALD3 deletion) was “Resistant (″Resistant″ or ″Sensitive″ indicate at least a 5-fold CFU difference from wildtype at the final time point)”. The “96 Well Screen … vs wildtype” value ([1]; S. cerevisiae PAB109, GAD1 deletion) was “Normal”, the “96 Well Screen … vs wildtype” value ([1]; S. cerevisiae PAB110, PGM3 deletion) was “Normal” and the “96 Well Screen … vs wildtype” value ([1]; S. cerevisiae PAB111, PYK2 deletion) was “Resistant (″Resistant″ or ″Sensitive″ indicate at least a 5-fold CFU difference from wildtype at the final time point)”. For the same compound, the “96 Well Screen … vs wildtype” value ([1]; S. cerevisiae PAB112, MNE1 deletion) was “Normal”, the “96 Well Screen … vs wildtype” value ([1]; S. cerevisiae PAB113, FUM1 deletion) was “Normal” and the “96 Well Screen … vs wildtype” value ([1]; S. cerevisiae PAB114, TPK2 deletion) was “Normal”. For the same compound, the “96 Well Screen … vs wildtype” value ([1]; S. cerevisiae PAB115, ATG29 deletion) was “Resistant (″Resistant″ or ″Sensitive″ indicate at least a 5-fold CFU difference from wildtype at the final time point)”, the “96 Well Screen … vs wildtype” value ([1]; S. cerevisiae PAB116, ISU1 deletion) was “Resistant (″Resistant″ or ″Sensitive″ indicate at least a 5-fold CFU difference from wildtype at the final time point)” and the “96 Well Screen … vs wildtype” value ([1]; S. cerevisiae PAB117, CYC7 deletion) was “Normal”. The “96 Well Screen … vs wildtype” value ([1]; S. cerevisiae PAB118, ARN1 deletion) was “Normal”, the “96 Well Screen … vs wildtype” value ([1]; S. cerevisiae PAB119, CIT2 deletion) was “Resistant (″Resistant″ or ″Sensitive″ indicate at least a 5-fold CFU difference from wildtype at the final time point)” and the “96 Well Screen … vs wildtype” value ([1]; S. cerevisiae PAB120, HSP30 deletion) was “Normal”. For the same compound, the “96 Well Screen … vs wildtype” value ([1]; S. cerevisiae PAB121, SDH1 deletion) was “Normal”, the “96 Well Screen … vs wildtype” value ([1]; S. cerevisiae PAB122, TPK3 deletion) was “Resistant (″Resistant″ or ″Sensitive″ indicate at least a 5-fold CFU difference from wildtype at the final time point)” and the “96 Well Screen … vs wildtype” value ([1]; S. cerevisiae PAB123, ISU2 deletion) was “Normal”. For the same compound, the “96 Well Screen … vs wildtype” value ([1]; S. cerevisiae PAB124, TPK1 deletion) was “Normal”, the “96 Well Screen … vs wildtype” value ([1]; S. cerevisiae PAB125, MID2 deletion) was “Normal” and the “96 Well Screen … vs wildtype” value ([1]; S. cerevisiae PAB126, SSK1 deletion) was “Sensitive (″Resistant″ or ″Sensitive″ indicate at least a 5-fold CFU difference from wildtype at the final time point)”. The “96 Well Screen … vs wildtype” value ([1]; S. cerevisiae PAB127, HSP42 deletion) was “Normal”, the “96 Well Screen … vs wildtype” value ([1]; S. cerevisiae PAB128, PIG1 deletion) was “Normal” and the “96 Well Screen … vs wildtype” value ([1]; S. cerevisiae PAB130, UGA1 deletion) was “Resistant (″Resistant″ or ″Sensitive″ indicate at least a 5-fold CFU difference from wildtype at the final time point)”. The “96 Well Screen … vs wildtype” value ([1]; S. cerevisiae PAB131, MTL1 deletion) was “Normal”, the “96 Well Screen … vs wildtype” value ([1]; S. cerevisiae PAB132, CIT3 deletion) was “Resistant (″Resistant″ or ″Sensitive″ indicate at least a 5-fold CFU difference from wildtype at the final time point)” and the “96 Well Screen … vs wildtype” value ([1]; S. cerevisiae PAB133, ZWF1 deletion) was “Normal”. The “96 Well Screen … vs wildtype” value ([1]; S. cerevisiae PAB134, SUM1 deletion) was “sensitive”, the “96 Well Screen … vs wildtype” value ([1]; S. cerevisiae PAB135, NDI1 deletion) was “Resistant (″Resistant″ or ″Sensitive″ indicate at least a 5-fold CFU difference from wildtype at the final time point)” and the “96 Well Screen … vs wildtype” value ([1]; S. cerevisiae PAB136, PGM2 deletion) was “Normal”. The “96 Well Screen … vs wildtype” value ([1]; S. cerevisiae PAB137, HFD1 deletion) was “Normal”, the “96 Well Screen … vs wildtype” value ([1]; S. cerevisiae PAB138, PUF2 deletion) was “Normal” and the “96 Well Screen … vs wildtype” value ([1]; S. cerevisiae PAB139, TDH1 deletion) was “Sensitive (″Resistant″ or ″Sensitive″ indicate at least a 5-fold CFU difference from wildtype at the final time point)”. The “96 Well Screen … vs wildtype” value ([1]; S. cerevisiae PAB140, GUD1 deletion) was “Sensitive (″Resistant″ or ″Sensitive″ indicate at least a 5-fold CFU difference from wildtype at the final time point)”, the “96 Well Screen … vs wildtype” value ([1]; S. cerevisiae PAB141, ATG15 deletion) was “Sensitive (″Resistant″ or ″Sensitive″ indicate at least a 5-fold CFU difference from wildtype at the final time point)” and the “96 Well Screen … vs wildtype” value ([1]; S. cerevisiae PAB142, TDH2 deletion) was “Sensitive (″Resistant″ or ″Sensitive″ indicate at least a 5-fold CFU difference from wildtype at the final time point)”. The “96 Well Screen … vs wildtype” value ([1]; S. cerevisiae PAB143, ATP1 deletion) was “Sensitive (″Resistant″ or ″Sensitive″ indicate at least a 5-fold CFU difference from wildtype at the final time point)”, the “96 Well Screen … vs wildtype” value ([1]; S. cerevisiae PAB144, UGA2 deletion) was “Sensitive (″Resistant″ or ″Sensitive″ indicate at least a 5-fold CFU difference from wildtype at the final time point)” and the “96 Well Screen … vs wildtype” value ([1]; S. cerevisiae PAB145, CIT1 deletion) was “Resistant (″Resistant″ or ″Sensitive″ indicate at least a 5-fold CFU difference from wildtype at the final time point)”. The “96 Well Screen … vs wildtype” value ([1]; S. cerevisiae PAB146, SOLI deletion) was “Normal”, the “96 Well Screen … vs wildtype” value ([1]; S. cerevisiae PAB147, PAN6 deletion) was “Normal” and the “96 Well Screen … vs wildtype” value ([1]; S. cerevisiae PAB148, SOL4 deletion) was “Normal”. For the same compound, the “96 Well Screen … vs wildtype” value ([1]; S. cerevisiae PAB149, YAK1 deletion) was “Sensitive (″Resistant″ or ″Sensitive″ indicate at least a 5-fold CFU difference from wildtype at the final time point)”, the “96 Well Screen … vs wildtype” value ([1]; S. cerevisiae PAB150, PBS2 deletion) was “Sensitive (″Resistant″ or ″Sensitive″ indicate at least a 5-fold CFU difference from wildtype at the final time point)” and the “96 Well Screen … vs wildtype” value ([1]; S. cerevisiae PAB152, GPD1 deletion) was “Sensitive (″Resistant″ or ″Sensitive″ indicate at least a 5-fold CFU difference from wildtype at the final time point)”. For the same compound, the “96 Well Screen … vs wildtype” value ([1]; S. cerevisiae PAB153, SHO1 deletion) was “Sensitive (″Resistant″ or ″Sensitive″ indicate at least a 5-fold CFU difference from wildtype at the final time point)”, the “96 Well Screen … vs wildtype” value ([1]; S. cerevisiae PAB154, FET3 deletion) was “Sensitive (″Resistant″ or ″Sensitive″ indicate at least a 5-fold CFU difference from wildtype at the final time point)” and the “96 Well Screen … vs wildtype” value ([1]; S. cerevisiae PAB155, FBP1 deletion) was “Sensitive (″Resistant″ or ″Sensitive″ indicate at least a 5-fold CFU difference from wildtype at the final time point)”. The “96 Well Screen … vs wildtype” value ([1]; S. cerevisiae PAB156, COX6 deletion) was “Sensitive (″Resistant″ or ″Sensitive″ indicate at least a 5-fold CFU difference from wildtype at the final time point)” and the “susceptibility of DSBR mutants compared to wildtype” value [2] was “particularly susceptible”.
